The values that follow come from patent US20110300115A1, “USE OF INDUCTOR AGENTS GSE24.2 FOR PRODUCING PHARMACEUTICAL COMPOSITIONS FOR TREATING ILLNESSES RELATING TO CELLULAR SENESCENCE” (priority 2007, published 2011).

The subject of assay [1] is hTR promoter. The experiment in a line: hTR-luc reporter, 293T cells. Type of assay: cell-based, human. The conditions noted are these: luciferase 24 h after transfection. Here is the method: Also, cisplatinum stimulates the promoter's activity in GSE24-2 cells more than in the control cells (FIG. 2B). […] No effect was observed of the expression of GSE24-2 on the promoter hTR^9 using cells expressing DKC or GSE24-2 (FIG. 2C).
Transfection and analysis of gene expression. The 293T cells were transfected transiently using the calcium phosphate method, as described previously^39. The total amount of DNA was maintained constant at 10 μg per million cells. The X-DC cells were transfected transiently by electroporation with 3 μg of pLNCX-GSE24-2 per million cells. The cells VA13 MEFs were transfected with […] of DNA/per million cells using lipofectamine plus (Invitrogen), following the manufacturer's instructions. The protein extracts were prepared and luciferase measured using a commercial kit (Promega). Each test was carried out in triplicate and the experiments were repeated three times. The efficiency of transfection was corrected by co-transfection of the plasmid p-CMV-Renilla.

Assay [2] relates to telomerase activity of 293T cell extracts. Nature of the assay: in vitro test of telomerase activity inhibition using cisplatinum (TRAP assay, telomeric probe). Type of assay: biochemical. The conditions noted are these: 293T cell extracts and telomere probe treated in vitro with cisplatinum; rising amounts of peptide. On the procedure: This description for the first time describes use of the previously described peptide GSE 24.2 in an in vitro test of telomerase activity inhibition using cisplatinum with cell extracts from 293T cells and a telomere probe treated with cisplatinum. […] Additionally, the possible bond of the peptide GSE24-2 to the telomere sequence was analysed using gel shift tests, with an oligonucleotide that forms a loop (TEL1) which reconstructs the double chain sequence of the telomere with a small 3′ hanging sequence^41.
Production and purification of the peptide GSE24-2: The DH5α cells of E. coli were transformed with the vector pGATEV GSE24-2 and the lysates were prepared as described previously^33. The fusion protein was purified with glutathione-sepharose and the purity was analysed by means of gel electrophoresis. The GSE24-2 was obtained following digestion with the protease TEV following the manufacturer's instructions. Routinely, 90% was obtained of the digested protein according to what was obtained in SDS-PAGE electrophoresis. The protein was passed twice through a Hi-Trap Ni-NTA column in order to discard polyhistidine tails, undigested protein, TEV protease, and impurities.
Telomere repeat amplification protocol (TRAP). Telomerase activity was measured using the TRAPeze^37 telomerase detection kit (Intergen, Purchase, USA) following the manufacturer's instructions. […]

For the compound `O=C1c2ccccc2-c2n[nH]c3cccc1c23` [SP60125], the “activity of the hTR promoter” value in assay [1] was “capable of activating the activity of this promoter”.

As for “peptide GSE24-2: purified peptide GSE24-2 (SEQ ID NO2), fragment of dyskerin, produced in E. coli as fusion protein and cleaved with TEV protease (GFINLDKPSNPSSHEVVAWIRRILRVEKTGHSGTLDPKVTGCLIVCIERATRLVK; listed as Homo sapiens)”, in assay [2], the “telomerase activity of extracts under inhibition by cisplatinum” value was “protect the telomerase activity of the extracts”.
